The data set can be described thus: Isotope tracer infusion: circulatory turnover flux (Fcirc). The data set is classed as in vivo, mouse. To be noted: fasted mice. From the text: To confirm this idea, and to test whether the same might be true of circulating 3HB and acetoacetate, a set of isotope-tracer infusion experiments was devised. The circulatory turnover flux (Fcirc) of a given metabolite refers to the rate at which tissues collectively take up the metabolite from arterial circulation; alternatively, Fcirc can be defined as the rate at which tissues collectively excrete the metabolite into the venous circulation, as these two rates are equal at steady state in minimally perturbative tracer infusions.
Isotope tracer infusion. For lactate circulatory turnover flux measurements, 10-14 weeks old C57BL/6 mice were catheterized via both left carotid artery and right jugular vein, as non-perturbative arterial blood sampling is required for precise measurement of circulating lactate labeling. Mice were allowed to recover for 5 days. Mice were fasted from ZT2 to ZT6.5. Sodium [2-^2H] or [U-^13C]lactate solution was diluted to 5% w/w in water, and infused into the double catheterized mice from ZT6.5 to ZT9 to pseudo steady state. Arterial blood was sampled to calculate the turnover rate for ^2H or ^13C lactate.
For other tracing experiments, 10-14 weeks old C57BL6/J mice or mice bearing tumors (KPC flank allografts or Kras^LSL-G12D/+Trp53^−/−Pdx-1-Cre GEMM, tumor sizes ˜150 mm^3) were catheterized via right jugular vein. Mice were allowed to recover from surgery for 3-5 days. For 3HB circulatory turnover flux experiments, mice were fasted from ZT2 to ZT6.5, and [3,4,4,4-^2H] or [U-^13C]3HB were infused to catheterized mice from ZT6.5 to ZT9. Tail blood was sampled to calculate the turnover rate for ^2H or ^13C 3HB.
Metabolic flux quantitation. Circulatory turnover flux, Fcirc was calculated as previously described (Hui et al., 2017), using arterial serum for lactate due to its substantial arterial-venous labeling gradient and tail vein serum for other nutrients:
[formula] R is the infusion rate of the labeled tracer and L is the fractional enrichment of infused labeled form of the metabolite tracer. Fcirc values of ^2H-labeled metabolites were corrected for kinetic isotope effect (KIE, determined from the enzymatic assays) by multiplying the observed Fcirc by KIE value of ^2H tracer.
In turn, `[2H]C(C)(O)C(=O)[O-].[Na+]` (stereo not shown) [^2H-labeled lactate, Sodium [2-^2H]lactate] gave a circulatory turnover flux of 550 nmol/g/min.

Consider `[13CH3][13CH](O)[13CH2][13C](=O)O` (stereo not shown) [^13C-labeled 3HB, [U-^13C]3HB], for which the circulatory turnover flux is reported as approximately 40 nmol/g/min.

`[2H]C([2H])([2H])C([2H])(O)CC(=O)O` (stereo not shown) [^2H-labeled 3HB, [3,4,4,4-^2H]3HB] registered a circulatory turnover flux of approximately 40 nmol/g/min.

The molecule `[13CH3][13CH](O)[13C](=O)[O-].[Na+]` (stereo not shown) [^13C-labeled lactate, Sodium [U-^13C]lactate] displayed a circulatory turnover flux of 380 nmol/g/min.

Values taken from patent US12653836B2, “Ketogenic diet and ketone supplementation for cancer therapy” (The Trustees of Princeton University, priority 2020, dated 2026).
